Measurements published in patent US11148991B2, “5-bromo-2-(alpha-hydroxypentyl)benzoic acid sodium salts in different crystal forms, and preparation method thereof” (priority 2013, dated 2021).

System: rat MCAO model
Assay: Brain infarction volume and brain edema volume in rats with local brain ischemia (MCAO model)
Type: in vivo, Wistar rats
Settings: sodium salt
Description: Wistar rats (50% of rats is female and another 50% of rats is male); 5-bromo-2-(α-hydroxypentyl)benzoic acid sodium salt (BZP, in the form of amorphous form, crystal form A and crystal form B, prepared according to the present invention), prepared in double distilled water; […] is in the form of white powder, manufactured by Beijing Chemical Works.
Administration method: 5-bromo-2-(α-hydroxypentyl)benzoic acid sodium salt (BZP) was intravenously injected at one hour before MCAO, with the dosage of 12 mg/kg; 5-bromo-2-(α-hydroxypentyl)benzoic acid sodium salt (BZP) was used to intragastric administration at one hour before MCAO, with the dosage of 20 mg/kg. 2-(α-hydroxypentyl)benzoic acid potassium salt (NBP-K) was used as positive control, and its dosage (calculated in moles) is the same as that of 5-bromo-2-(α-hydroxypentyl)benzoic acid sodium salt, that is, the dosage of intravenous injection is 9.6 mg/kg, and the dosage of intragastric administration is 15.9 mg/kg.
Preparation of MCAO model: Establish a focal brain ischemia-reperfusion injury model by cerebral artery obstruction in rats with suture-occluded method. Rats were intraperitoneally injected with 10% chloral hydrate to anesthetize. Rats were fixed on back and the skin of neck center was incised. The left common carotid artery, external carotid artery, and internal carotid artery were subjected to blunt dissection. The pterygopalatine artery was ligated, only remaining cranial trunk of internal carotid artery; a prepared nylon rope (burning diameter 0.3 mm) was inserted via external carotid artery incision into the bifurcation of the […], and was pushed along the cranial direction of the internal carotid artery. […] This indicates one side of the middle cerebral artery occlusion model was completed. Sutured the incision, remained the end of nylon line out of the skin. For reperfusion, the nylon line was gently pulled out. If feel force of resistance, this indicates the end of nylon line has returned to the trunk of external carotid artery, thereby accomplishing reperfusion.
Determination of infarction volume: After being subjected to ischemia for 2 hours and reperfusion for 24 hours, the heads of rats were cut off. Forebrain was removed and cut into six pieces, each piece being 2 mm. The pieces were stained with TC, and incubated at 37° C. for 30 minutes. Normal issues were stained to be red, but the infarcted issues were stained to be white. Took photos with digital camera, and calculated the percentage of the infarcted area relative to the spherical area of brain by Photoshop.

[1] = intragastric administration one hour before MCAO, BZP 20 mg/kg, NBP-K 15.9 mg/kg
[2] = intravenous injection one hour before MCAO, 12 mg/kg, 12 mg/kg

With CCCCC(O)c1ccc(Br)cc1C(=O)[O-].[Na+] (stereo not drawn) [BZP (amorphous form), 5-bromo-2-(α-hydroxypentyl)benzoic acid sodium salt] as the compound, how does the “Edema (%)” value [1] read?
The value was 2.24 ± 1.66^aa** %.

And the “Infarction volume (%)” value [1]?
Its value is 5.59 ± 2.35 aa %.

And the “Inhibition of edema (%)” value [1]?
Its value is 88.36%.

What about the “Inhibition of infarction volume (%)” value [1] of the same compound?
Its value is 89.05%.

And the “Edema (%)” value [2]?
Its value is 2.56 ± 1.63 aa %.

What about the “Inhibition of edema (%)” value [2] of the same compound?
The value was 88.58%.

What about the “Infarction volume (%)” value (intravenous injection one hour before MCAO, BZP 12 mg/kg, NBP-K 9.6 mg/kg, ischemia 2 hours, reperfusion 24 hours) of the same compound?
Its value is 3.46 ± 2.94 aa %.

What about the “Inhibition of infarction volume (%)” value (intravenous injection one hour before MCAO, BZP 12 mg/kg, NBP-K 9.6 mg/kg) of the same compound?
Its value is 93.52%.
